Like-named read-outs stand apart in the source and are kept apart here. Marks after values point to notes of the source that are not given here.
Experiments:
α-glucosidase (rice) = biological target: T1, α-glucosidase (rice) (Oryza sativa subsp. japonica, UniProt Q653V7); assay: glycosidase inhibition assay, α-glucosidase from rice; format: biochemical; details: for inhibition at 1000 µM: pH 5.1, 1 mM inhibitor, pH 5.1, p-nitrophenyl glycoside 1 mM, read-out: % inhibition at 1 mM concentration of inhibitor
T1 construct: purchased Sigma Chemical Co
T1 sequence (Q653V7 34-885): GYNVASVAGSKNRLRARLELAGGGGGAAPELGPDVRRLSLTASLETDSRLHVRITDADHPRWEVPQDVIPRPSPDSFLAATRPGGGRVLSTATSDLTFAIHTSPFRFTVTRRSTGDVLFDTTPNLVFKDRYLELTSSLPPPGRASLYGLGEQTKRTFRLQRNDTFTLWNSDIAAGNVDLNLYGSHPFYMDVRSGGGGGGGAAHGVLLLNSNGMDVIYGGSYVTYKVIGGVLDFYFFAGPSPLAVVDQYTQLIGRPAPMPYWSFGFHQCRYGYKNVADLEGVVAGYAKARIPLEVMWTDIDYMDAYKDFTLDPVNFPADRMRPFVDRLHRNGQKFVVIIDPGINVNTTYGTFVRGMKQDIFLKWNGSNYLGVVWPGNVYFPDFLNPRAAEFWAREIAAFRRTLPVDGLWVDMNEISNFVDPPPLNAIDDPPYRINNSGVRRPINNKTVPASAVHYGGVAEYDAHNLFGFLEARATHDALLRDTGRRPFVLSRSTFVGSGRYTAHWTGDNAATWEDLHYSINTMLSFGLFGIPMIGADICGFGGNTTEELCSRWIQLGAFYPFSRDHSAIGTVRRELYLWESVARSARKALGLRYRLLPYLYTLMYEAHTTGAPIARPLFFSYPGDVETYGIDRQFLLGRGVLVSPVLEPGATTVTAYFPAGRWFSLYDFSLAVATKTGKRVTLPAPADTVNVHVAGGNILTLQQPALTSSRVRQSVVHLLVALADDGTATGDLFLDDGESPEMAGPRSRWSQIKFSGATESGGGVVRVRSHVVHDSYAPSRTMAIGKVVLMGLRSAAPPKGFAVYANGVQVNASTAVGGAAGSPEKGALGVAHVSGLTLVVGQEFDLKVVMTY
Experimental: (§1) A prepared sample of DAB-1 8 was also tested under the same conditions for ease of comparison. A first set of biological assays was effected at 1 mM concentration of inhibitor. […] Former results from our laboratories have always followed this empirical rule.
(§2) All the enzymes were purchased from Sigma Chemical Co. In a typical experiment, the glycosidase (0.013 U/mL) was pre-incubated at 33 °C for 5 min in the presence of the inhibitor in 50 mM acetate buffer (pH 5.6, except for rice α-glucosidase pH 5.1 and yeast α-glucosidase pH 6.2). The reaction was started by the addition of the appropriate substrate (p-nitrophenyl glycoside, 1 mM concentration) to a final volume of 250 µL. The reaction was stopped after 10–15 min (depending on the enzyme) by the addition of 350 µL of 0.4 M Na2CO3. The released p-nitrophenolate was quantified spectrophotometrically at 415 nm with a microplate reader (300 µL of the reaction mixture per well). […] All the assays were performed in duplicate (less than 10% variability in each case).

[1] = biological target: T2, α-glucosidase (Sac. cerevisiae) (Saccharomyces cerevisiae, UniProt P53341); assay: glycosidase inhibition assay, α-glucosidase from yeast; format: biochemical; details: for inhibition at 1000 µM: pH 6.2, read-out: % inhibition at 1 mM concentration of inhibitor, 1 mM inhibitor, negative values mean activation
T2 construct: purchased Sigma Chemical Co
T2 sequence (P53341 whole entry): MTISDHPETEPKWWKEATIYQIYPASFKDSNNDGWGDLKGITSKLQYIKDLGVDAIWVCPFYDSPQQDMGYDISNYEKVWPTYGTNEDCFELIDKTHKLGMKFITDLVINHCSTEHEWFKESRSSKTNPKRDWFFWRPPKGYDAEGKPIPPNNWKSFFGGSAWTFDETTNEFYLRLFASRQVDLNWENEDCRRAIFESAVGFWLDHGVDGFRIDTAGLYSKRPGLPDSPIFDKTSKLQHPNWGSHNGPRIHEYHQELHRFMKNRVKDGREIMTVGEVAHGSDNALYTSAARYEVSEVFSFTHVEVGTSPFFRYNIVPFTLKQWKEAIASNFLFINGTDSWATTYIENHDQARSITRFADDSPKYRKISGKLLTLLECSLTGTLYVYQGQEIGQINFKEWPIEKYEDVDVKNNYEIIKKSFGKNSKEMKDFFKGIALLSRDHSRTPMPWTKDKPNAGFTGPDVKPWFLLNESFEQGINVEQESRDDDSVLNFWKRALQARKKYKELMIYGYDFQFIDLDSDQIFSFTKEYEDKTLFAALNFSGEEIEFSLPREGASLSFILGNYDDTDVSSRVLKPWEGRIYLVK
Experimental: as §1, §2

β-glucosidase (almond) = assay: glycosidase inhibition assay, β-glucosidase from almond; format: biochemical; details: pH 5.6; for % inhibition at 1 mM concentration of inhibitor: 1 mM inhibitor
Experimental: as §1, §2

[2] = biological target: T3, β-glucosidase (Asp. niger) (Aspergillus niger, UniProt A2RAL4); assay: glycosidase inhibition assay, β-glucosidase from A. niger; format: biochemical; details: for inhibition at 1000 µM: pH 5.6, 1 mM inhibitor, pH 5.6, read-out: % inhibition at 1 mM concentration of inhibitor
T3 construct: purchased Sigma Chemical Co
T3 sequence (A2RAL4 20-860): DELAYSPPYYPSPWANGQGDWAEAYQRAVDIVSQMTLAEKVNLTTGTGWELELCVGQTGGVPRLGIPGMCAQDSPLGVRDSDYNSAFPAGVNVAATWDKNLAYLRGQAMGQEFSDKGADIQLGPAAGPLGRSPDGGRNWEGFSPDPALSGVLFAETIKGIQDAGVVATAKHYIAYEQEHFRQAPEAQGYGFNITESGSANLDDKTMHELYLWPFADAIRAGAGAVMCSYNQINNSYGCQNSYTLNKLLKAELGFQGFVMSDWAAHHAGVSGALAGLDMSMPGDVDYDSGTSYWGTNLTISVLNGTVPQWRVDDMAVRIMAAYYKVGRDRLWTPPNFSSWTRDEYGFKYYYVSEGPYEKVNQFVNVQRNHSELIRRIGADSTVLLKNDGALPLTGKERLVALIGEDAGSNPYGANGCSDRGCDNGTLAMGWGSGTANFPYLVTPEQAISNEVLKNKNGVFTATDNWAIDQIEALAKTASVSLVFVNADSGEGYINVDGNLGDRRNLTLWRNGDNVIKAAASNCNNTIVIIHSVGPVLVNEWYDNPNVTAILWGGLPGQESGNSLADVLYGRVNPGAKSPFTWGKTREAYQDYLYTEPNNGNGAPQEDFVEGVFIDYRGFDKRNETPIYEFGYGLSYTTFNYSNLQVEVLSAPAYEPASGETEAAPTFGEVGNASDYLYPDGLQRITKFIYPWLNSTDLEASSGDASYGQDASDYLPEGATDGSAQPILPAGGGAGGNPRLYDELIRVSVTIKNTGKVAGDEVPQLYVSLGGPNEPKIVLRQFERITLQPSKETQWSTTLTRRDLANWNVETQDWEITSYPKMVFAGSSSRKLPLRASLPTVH
Experimental: as §1, §2

[3] = biological target: T4, β-galactosidase (Asp. orizae) (Aspergillus oryzae, UniProt Q2UCU3); assay: glycosidase inhibition assay, β-galactosidase from A. orizae; format: biochemical; details: for inhibition at 1000 µM: pH 5.6, read-out: % inhibition at 1 mM concentration of inhibitor; for IC50: pH 5.6
T4 construct: purchased Sigma Chemical Co
T4 sequence (Q2UCU3 19-1005): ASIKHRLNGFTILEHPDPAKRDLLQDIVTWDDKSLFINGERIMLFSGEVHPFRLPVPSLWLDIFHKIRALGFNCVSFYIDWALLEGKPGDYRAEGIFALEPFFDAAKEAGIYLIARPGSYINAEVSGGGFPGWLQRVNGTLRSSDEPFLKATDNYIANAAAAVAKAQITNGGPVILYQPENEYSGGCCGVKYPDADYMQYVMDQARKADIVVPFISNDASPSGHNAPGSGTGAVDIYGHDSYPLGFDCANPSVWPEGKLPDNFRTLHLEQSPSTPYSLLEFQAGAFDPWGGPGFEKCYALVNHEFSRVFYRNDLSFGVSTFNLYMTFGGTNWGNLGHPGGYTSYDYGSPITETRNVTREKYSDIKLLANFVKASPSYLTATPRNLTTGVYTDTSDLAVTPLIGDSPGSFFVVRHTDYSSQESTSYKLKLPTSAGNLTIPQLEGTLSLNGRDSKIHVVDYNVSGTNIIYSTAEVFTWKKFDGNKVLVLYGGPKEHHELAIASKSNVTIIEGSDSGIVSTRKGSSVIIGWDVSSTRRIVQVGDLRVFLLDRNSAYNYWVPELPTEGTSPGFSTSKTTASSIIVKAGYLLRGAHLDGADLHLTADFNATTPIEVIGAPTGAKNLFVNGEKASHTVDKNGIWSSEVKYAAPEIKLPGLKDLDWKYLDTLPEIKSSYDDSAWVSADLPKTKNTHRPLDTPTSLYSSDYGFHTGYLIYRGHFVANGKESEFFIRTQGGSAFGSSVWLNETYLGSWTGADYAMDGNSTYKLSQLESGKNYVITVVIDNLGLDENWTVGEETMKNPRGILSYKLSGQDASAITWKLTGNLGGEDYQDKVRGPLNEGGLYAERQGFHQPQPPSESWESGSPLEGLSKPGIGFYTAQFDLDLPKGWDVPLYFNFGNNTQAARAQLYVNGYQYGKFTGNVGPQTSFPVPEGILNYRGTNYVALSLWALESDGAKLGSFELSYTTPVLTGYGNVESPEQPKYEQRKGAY
Experimental: as §1, §2

[4] = biological target: T5, α-mannosidase (Jack bean) (Canavalia ensiformis, UniProt C0HJB3); assay: glycosidase inhibition assay, α-mannosidase from Jack bean; format: biochemical
T5 construct: purchased Sigma Chemical Co
T5 sequence (C0HJB3 1-981): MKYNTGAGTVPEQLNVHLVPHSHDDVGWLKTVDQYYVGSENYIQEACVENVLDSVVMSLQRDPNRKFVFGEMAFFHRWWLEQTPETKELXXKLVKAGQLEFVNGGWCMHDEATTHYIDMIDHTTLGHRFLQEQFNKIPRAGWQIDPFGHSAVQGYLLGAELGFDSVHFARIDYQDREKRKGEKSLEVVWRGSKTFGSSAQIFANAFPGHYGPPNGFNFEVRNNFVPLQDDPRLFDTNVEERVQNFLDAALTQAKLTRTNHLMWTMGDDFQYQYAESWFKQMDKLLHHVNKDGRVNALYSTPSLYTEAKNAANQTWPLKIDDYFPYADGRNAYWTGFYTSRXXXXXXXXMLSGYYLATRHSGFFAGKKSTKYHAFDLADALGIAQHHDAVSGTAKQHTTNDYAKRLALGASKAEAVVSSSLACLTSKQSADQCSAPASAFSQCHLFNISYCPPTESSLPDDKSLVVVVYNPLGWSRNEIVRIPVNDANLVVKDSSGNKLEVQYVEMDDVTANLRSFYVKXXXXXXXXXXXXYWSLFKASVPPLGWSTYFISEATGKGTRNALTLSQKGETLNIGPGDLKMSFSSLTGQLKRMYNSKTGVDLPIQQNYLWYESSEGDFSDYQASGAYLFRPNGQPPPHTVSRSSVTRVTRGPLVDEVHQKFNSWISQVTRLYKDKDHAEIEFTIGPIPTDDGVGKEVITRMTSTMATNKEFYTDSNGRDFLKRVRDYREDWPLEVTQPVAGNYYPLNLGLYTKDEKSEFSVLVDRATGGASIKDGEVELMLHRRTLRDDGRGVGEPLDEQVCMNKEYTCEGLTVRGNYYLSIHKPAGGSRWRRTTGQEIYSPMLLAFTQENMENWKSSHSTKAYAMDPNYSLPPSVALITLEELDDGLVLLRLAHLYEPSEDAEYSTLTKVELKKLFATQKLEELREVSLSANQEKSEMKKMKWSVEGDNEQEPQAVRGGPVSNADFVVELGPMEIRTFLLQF
Experimental: as §1, §2

[5] = test system: α-rhamnosidase (Asp. niger); assay: glycosidase inhibition assay, α-rhamnosidase from A. niger; format: biochemical; details: 1 mM inhibitor; pH 5.6
Experimental: as §1, §2

[6] = biological target: T6, α-galactosidase (green coffee) (Coffea arabica, UniProt Q42656); assay: glycosidase inhibition assay, α-galactosidase from green coffee bean; format: biochemical; details: 1 mM inhibitor; pH 5.6; read-out: % inhibition at 1 mM concentration of inhibitor
T6 construct: purchased Sigma Chemical Co
T6 sequence (Q42656 16-378): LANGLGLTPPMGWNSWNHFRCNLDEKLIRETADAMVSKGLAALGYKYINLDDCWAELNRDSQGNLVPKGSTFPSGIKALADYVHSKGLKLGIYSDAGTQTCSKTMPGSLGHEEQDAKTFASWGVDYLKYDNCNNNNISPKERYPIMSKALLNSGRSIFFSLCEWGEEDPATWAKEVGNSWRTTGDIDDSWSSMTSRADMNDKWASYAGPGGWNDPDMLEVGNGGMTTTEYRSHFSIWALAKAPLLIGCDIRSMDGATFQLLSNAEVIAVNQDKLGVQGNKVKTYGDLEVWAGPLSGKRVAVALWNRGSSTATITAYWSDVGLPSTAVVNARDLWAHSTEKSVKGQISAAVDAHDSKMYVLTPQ
Experimental: as §1, §2

β-GlcNAc-ase (Jack bean) = assay: glycosidase inhibition assay, β-N-acetylglucosaminidase from Jack bean; format: biochemical; details: for % inhibition at 1 mM concentration of inhibitor: 1 mM inhibitor, pH 5.6, negative values mean activation; for activation of enzyme activity: 1 mM compound
Experimental: as §1, §2

fucosidase = biological target: fucosidase; design: method as in PMID 27138139; details: cited from earlier work
[7] = pH 5.6, read-out: % inhibition at 1 mM concentration of inhibitor
[8] = 1 mM inhibitor, pH 5.6, read-out: % inhibition at 1 mM concentration of inhibitor

Row | SMILES | inhibition at 1000 µM (α-glucosidase (rice)) [%] | inhibition at 1000 µM ([1]; pH 6.2) [%] | % inhibition at 1 mM concentration of inhibitor (β-glucosidase (almond)) [%] | inhibition at 1000 µM [2] [%] | inhibition at 1000 µM [3] [%] | inhibition at 1000 µM [4, 7] [%] | % inhibition at 1 mM concentration of inhibitor [5] [%] | inhibition at 1000 µM [6] [%] | % inhibition at 1 mM concentration of inhibitor (β-GlcNAc-ase (Jack bean)) | inhibition at 1000 µM [4, 8] [%] | IC50 ([4]; pH 5.6) [µM] | further results
1 | OC[C@@H]1[C@@H](O)[C@H](O)CN1Cc1cccc(CN2C[C@@H](O)[C@H](O)[C@H]2CO)c1 [13a] | 40 | 88 | 13 | 24 | 93 | 75 | 67 | 38 | NI (NI means no impact on enzyme activity (less than 5% inhibition or activation)) | – | – | –
2 | OC[C@@H]1[C@@H](O)[C@H](O)CN1Cc1ccc(CN2C[C@@H](O)[C@H](O)[C@H]2CO)cc1 [13b] | 77 | 95 | 16 | 43 | > 95 | – | 24 | < 5 | NI (NI means no impact on enzyme activity (less than 5% inhibition or activation)) | 84 | – | IC50 [1]: 39 µM; IC50 [3]: 2.8 µM
3 | OC[C@@H]1[C@@H](O)[C@H](O)CN1CCCCCCCCN1C[C@@H](O)[C@H](O)[C@H]1CO [13c] | 92 | 88 | 60 | 94 | > 95 | – | 69 | 61 | NI (NI means no impact on enzyme activity (less than 5% inhibition or activation)) | > 95 | 18 | IC50 [3]: 31 µM
4 | OC[C@@H]1[C@@H](O)[C@H](O)CN1CCOCCOCCN1C[C@@H](O)[C@H](O)[C@H]1CO [13d] | ~90 | ~90 | 24 | ~90 | 92 | 82 | 46 | 22 | –38% ^c | – | – | activation of enzyme activity (β-GlcNAc-ase (Jack bean)): 38%
5 | OC[C@@H]1[C@@H](O)[C@H](O)CN1CCCOCCOCCOCCCN1C[C@@H](O)[C@H](O)[C@H]1CO [13e] | 72 | 65 | 23 | 91 | 81 | – | 18 | 22 | NI (NI means no impact on enzyme activity (less than 5% inhibition or activation)) | > 95 | 34 | –
6 | C=CC[C@@H]1[C@@H](O)[C@H](O)[C@@H](CO)N1CCOCCOCCN1[C@H](CO)[C@@H](O)[C@H](O)[C@H]1CC=C [16d] | 26 | -20 | 25 | 51 | 58 | 32 | 25 | < 5 | –33% ^c | – | – | enhancement of enzyme activity ([1]; activation, 1 mM compound): 20%; activation of enzyme activity (β-GlcNAc-ase (Jack bean)): 33%
7 | OC[C@H]1NC[C@@H](O)[C@@H]1O [DAB-1] | > 95 | > 95 | 95 | > 95 | 76 | – | 34 | 11 | 14% | > 95 | 49 | IC50 (α-glucosidase (rice)): 7.8 µM; IC50 ([1]; pH 6.2, determined when >95% inhibition at 1 mM, read-out: IC50): 0.69 µM; IC50 (β-glucosidase (almond)): 79 µM; IC50 [2]: 62 µM
8 | C[C@@H]1N[C@@H](CCCC[C@@H]2N[C@@H](C)[C@@H](O)[C@H]2O)[C@H](O)[C@@H]1O [compound 6] | – | – | – | – | – | – | – | – | – | – | – | IC50 (fucosidase): 0.108 µM; fold increase in the inhibition potency relative to the monomer (fucosidase; dimer vs monomer): 19 fold

— paper PMC11767490, “A Bis-Glycosylamine Strategy for the Synthesis of Dimeric Iminosugars Based on a DAB-1 Scaffold” (Molecules, 2025)
